From patent US20050048462A1, “Markers and screens” (priority 2001, published 2005)

Legend:
Format in all cases: cell-based
[1] = system: hippocampal neurons expressing unmodified GFP; test: Distribution of unmodified GFP in dendrites after glutamate (control construct); settings: 10 μM glutamate
Procedure: (§1) To test this hypothesis we exposed hippocampal neurons expressing GFP-tagged profilin II or profilin I or unmodified GFP to 10 μM glutamate (FIG. 2). […] Glutamate treatment also produced a weaker shift of GFP tagged profilin I into spines (FIG. 2D) which, however, never approached the high levels seen for profilin II.

[2] = system: cultured hippocampal neurons; settings: glutamate 100 microM for 30 min
Excerpt: This is relevant to stroke and epilepsy where hyperstimulation of receptors by released glutamate causes neuronal damage. Thus it appears that profilin II tagging occurs even after events that ultimately lead to apoptosis have been set in motion. In toxicity models, profilin II targeting could thus act as a marker for potentially damaged cells at times before cell death occurs.

[3] = system: hippocampal neurons expressing GFP-tagged profilin I; test: Profilin I-GFP redistribution to spines after glutamate; settings: 10 μM glutamate; compared with profilin II
Procedure: as §1

[4] = system: GFP-tagged gelsolin in hippocampal neurons; test: Gelsolin accumulation in dendritic spines, receptor subtype specificity
Procedure: Imaging was performed at 37° C. in Tyrode's solution pH 7.3, with GFP-optimized filters (Chroma Technologies, Brattleboro, Vt.) and a MicroMax cooled CCD camera (Princeton Instruments, Trenton, N.J.) controlled by Metamorph software (Universal Imaging corporation, West Chester, Pa.). Cells were stimulated by addition of glutamate or NMDA (5 to 10 μM) for up to 30 minutes. In experiments where specific receptor subtypes were blocked, cells were preincubated for 15 minutes with corresponding antagonists.
In these experiments only 2.5 μM glutamate was used.

[5] = treated with glutamate (2.5 μM) while blocking specific receptor subtypes
[6] = treated with agonists for specific receptor subtypes

Structure (SMILES)	Accumulation (+) of gelsolin, number of cells [4, 5]	No change (−) of gelsolin, number of cells [4, 5]	Accumulation (+) of gelsolin, number of cells [4, 6]	No change (−) of gelsolin, number of cells [4, 6]	other results
N[C@@H](CCC(=O)O)C(=O)O [glutamate]	–	–	–	–	Distribution of unmodified GFP (in words) [1]: did not change the distribution; Number of cells in category − ([1]; GFP construct): 7; Profilin II-GFP targeting despite degenerative changes (in words) [2]: still targeted to punctate sites within dendrites; Time to excitotoxic changes (loss of normal morphology, swelling of dendrites) [2]: ≤ 2 min; Shift of GFP tagged profilin I into spines (in words) [3]: weaker shift
NS(=O)(=O)c1cccc2c1c([N+](=O)[O-])cc1[nH]c(=O)c(=O)[nH]c12 [NBQX, 1,2,3,4-Tetrahydro-6-nitro-2,3-dioxo-benzo[f]quinoxaline-7-sulfonamide]	7	6	–	–	–
CC(N)(C(=O)O)c1ccc(C(=O)O)cc1 (racemic) [MCPG, (R, S)-[…]-methyl-4-carboxyphenylglycine]	3	8	–	–	–
Cc1onc(O)c1CC(N)C(=O)O (centres unmarked) [AMPA, amino-3-hydroxy-5-methyl-4-isoxazolepropionic acid]	–	–	0	10	–
CN[C@H](CC(=O)O)C(=O)O [NMDA, N-methyl-D-aspartate]	–	–	11	16	–
N[C@H](CCCP(=O)(O)O)C(=O)O [APV, D(−)-2-amino-5-phosphonopentanoic acid]	1	14	–	–	–
N[C@H](C(=O)O)c1cc(O)cc(O)c1 [DHPG, (S)-3,5-dihydroxyphenylglycine]	–	–	4	7	–
